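A five-concentration, 48-hour dose response in 96-well plates underlies each endpoint, interpolated linearly between surrounding concentrations. Here, GI50 denotes the concentration required for 50% inhibition of growth. TGI: concentration producing complete growth inhibition.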
Experiments:
Assay in all cases: NCI tumour cell line growth inhibition, 48 h
BT-549 breast = test system: BT-549 breast
CAKI-1 renal = test system: CAKI-1 renal
MCF7 breast = test system: MCF7 breast
OVCAR-3 ovarian = test system: OVCAR-3 ovarian
OVCAR-4 ovarian = test system: OVCAR-4 ovarian
PC-3 prostate = test system: PC-3 prostate
RPMI-8226 leukemia = test system: RPMI-8226 leukemia
SF-539 CNS = test system: SF-539 CNS
SK-MEL-28 melanoma = test system: SK-MEL-28 melanoma
HOP-92 NSCLC = test system: HOP-92 NSCLC

Compound | TGI (BT-549 breast) [µM] | TGI (CAKI-1 renal) [µM] | TGI (MCF7 breast) [µM] | TGI (OVCAR-3 ovarian) [µM] | TGI (OVCAR-4 ovarian) [µM] | TGI (PC-3 prostate) [µM] | TGI (RPMI-8226 leukemia) [µM] | TGI (SF-539 CNS) [µM] | TGI (SK-MEL-28 melanoma) [µM] | TGI (HOP-92 NSCLC) [µM] | GI50 (BT-549 breast) [µM] | GI50 (CAKI-1 renal) [µM] | GI50 (HOP-92 NSCLC) [µM] | GI50 (MCF7 breast) [µM] | GI50 (OVCAR-3 ovarian) [µM] | GI50 (OVCAR-4 ovarian) [µM] | GI50 (PC-3 prostate) [µM] | GI50 (RPMI-8226 leukemia) [µM] | GI50 (SF-539 CNS) [µM]
c1ccc2c(c1)ccc1nc(-c3ccc4c(c3)OCO4)c3c(c12)CCC3 | > 100 | > 100 | > 100 | > 100 | > 100 | > 100 | > 100 | > 100 | > 100 |  |  |  |  |  |  |  |  |  | 
O=C(O)c1cc(Nc2c(O)c3c(c(O)c2Cl)C(=O)C=CC3=O)ccc1O | > 10 | > 10 | > 10 | > 10 | > 10 | > 10 |  | > 10 | > 10 | > 10 |  |  |  |  |  |  |  |  | 
Cc1cc(C)c(C#N)c(SC(=S)NC(=O)c2ccccc2)n1 | > 100 | > 100 | > 100 |  | > 100 | > 100 | > 100 | > 100 | > 100 | > 100 |  |  |  |  |  |  |  |  | 
CC(C)NCCNC(=O)c1ccccc1Nc1c(Cl)cccc1Cl |  |  |  | 26.6 | 30.3 |  | 16.2 | 30.2 | 28.1 |  |  |  |  |  |  |  |  |  | 
O=C1NC(=S)N/C1=C\c1ccc(Sc2ccccc2C(=O)O)s1 | > 100 | > 100 | > 100 | > 100 | > 100 | > 100 | > 100 |  | > 100 |  |  |  |  |  |  |  |  |  | 
Cc1cccc(=O)c([O-])c1.Cc1cccc(=O)c([O-])c1.Cc1cccc(=O)c([O-])c1.Cc1cccc(=O)c([O-])c1.[Th+4] |  | 86.6 |  | > 22 | > 100 |  | > 100 | 54.3 | > 100 | > 68.9 |  |  |  |  |  |  |  |  | 
COc1ccc(-c2cc(-c3ccc(OC)c(OC)c3)nc(SCCCC(=O)NO)n2)cc1 | > 100 | 2.37 | 10.2 | 5.46 | > 100 | > 100 | 6.21 | 3.48 |  | 5.63 | 3.8 | 0.431 | 1.5 | 2.75 | 1.69 | 2.02 | 2.07 | 0.752 | 1.31
c1cc2c3c(c1)[C@@H]1O[C@@H]1c1cccc(c1-3)[C@@H]1O[C@H]21 | 98.5 | 32.7 | > 100 |  | 56.3 | 51.9 |  |  | 31.3 | 50.2 |  |  |  |  |  |  |  |  | 
Nc1cc2ncnc(Nc3cccc(Br)c3)c2cn1 | > 100 | > 100 |  | > 100 | > 100 | > 100 | > 100 | > 100 | > 100 | > 100 |  |  |  |  |  |  |  |  | 
COc1ccc(C2C3=CONC3CC3CCCCC32)cc1 (stereo unspecified) | > 100 | > 100 | > 100 | > 100 | > 100 | > 100 | > 100 |  | > 100 |  |  |  |  |  |  |  |  |  | 
Cc1c(Cl)c(=O)oc2cc(OCC(O)COC(C)C)ccc12 (stereo unspecified) |  |  | 65.3 | > 100 | > 100 | > 100 | > 100 |  | > 100 | > 100 |  |  |  |  |  |  |  |  | 

Source: PubChem BioAssay (NCI)
